Experimental data reported in US11219607B2, “Methods for suppressing cancer-related cachexia” (Ohio State Innovation Foundation, priority 2013, dated 2022).

Experiments:
Type in all cases: in vivo, CD2F1 mice
IL-6 = test: Serum cytokine profiling, C-26 model: IL-6; details: C-26 tumor-bearing mice, day 17; tumor-bearing/vehicle 230±105, tumor-free/vehicle 2.9±1.3
Excerpt: (§1) Gastrocnemius muscles and sera were collected at day 17 post-cell injection from each treatment group (n=8/group). Muscle was submitted to Metabolon, Inc. (Durham, N.C.) for metabolomic analysis of 270 metabolic intermediates via proprietary mass spectrometry platforms. Serum was submitted to Eve Technologies (Alberta, Canada) for analysis of 32 cytokines using a mouse cytokine array (32-plex panel).
(§2) To shed light onto the mechanism by which AR-42 mediated its anti-cachectic effect, sera and gastrocnemius muscle from vehicle- or AR-42-treated tumor-free and C-26 tumor-bearing mice were used for cytokine profiling analysis and whole transcriptome shotgun sequencing (RNA-seq), respectively.

C-26 tumor-bearing mice [1] = test: Survival and body weight comparison of HDAC inhibitors, C-26 model; details: day 21, 50 mg/kg every other day orally from day 6
Procedure: (§3) In one aspect, tumors were established by subcutaneous injection of C-26 cells (0.5×10^6 cells in 0.1 ml) into the right flank of male CD2F1 mice (approximately 6 weeks of age; Harlan Laboratories, Indianapolis, Ind.)(11). Tumor-bearing mice, as well as tumor-free mice serving as non-cachectic controls, were randomized into groups that were treated with either AR-42 (50 mg/kg, p.o. by gavage, every other day; Arno Therapeutics, Inc., Flemington, N.J.) or vehicle (0.5% methylcellulose (w/v) and 0.1% Tween-80 (v/v) in sterile water) starting 6 days after cell injection. To investigate the effect of delayed treatment, treatments with drug and/or vehicle were started 6, 10 and 12 days after cancer cell injection.
In another aspect, the effects of AR-42 were compared to other HDAC inhibitors. […]
The effects of AR-42 were compared to other HDAC inhibitors (i.e., vorinostat and romidepsin) in C-26 tumor-bearing mice. Starting on day 6 after tumor cell injection, mice were treated continuously with AR-42 (50 mg/kg every other day, orally), vorinostat [50 mg/kg once daily, orally (13)], romidepsin [0.6 mg/kg twice weekly, i.p. (14)], or vehicle, until weight loss, as determined by daily body weight measurements and subtraction of tumor mass, reached 20% of starting weight. […]

C-26 tumor-bearing mice [2] = test: Forelimb grip strength measurement, C-26 delayed treatment; details: all drug-treated groups (start day 6, 10, 12); day 15 and 16
Procedure: Forelimb grip strength was measured mice using a Digital Grip Strength Meter (Columbus Instruments, Columbus, Ohio). Five measurements were taken from each mouse, the average of which was designated as the mouse's grip strength.
To measure forelimb grip strength, each mouse was held by the base of its tail and lowered over the apparatus until its forepaws grasped the pull bar. The mouse was then gently pulled horizontally in a straight line away from the grip meter until the mouse released the bar, and the maximum force attained was recorded. Five measurements were taken from each mouse, the average of which was designated as the mouse's grip strength.

[3] = test system: leukemia inhibitory factor (LIF); test: Serum cytokine profiling, C-26 model: LIF; details: C-26 tumor-bearing mice, day 17; tumor-bearing/vehicle 19.7±9.3, tumor-free/vehicle 1.7±1.5
Excerpt: as §1, §2

[4] = test system: IL-6 receptor alpha chain (IL-6Rα) mRNA; test: qPCR of skeletal muscle, C-26 model: IL-6Rα; details: muscle of C-26 tumor-bearing mice; tumor-bearing/vehicle 13±1.4-fold
Procedure: (§4) Total RNA was isolated from homogenized gastrocnemius muscles (n=3/group) with TRIzol reagent (Life Technologies, Carlsbad, Calif.) and then purified using the RNAeasy Mini Kit (Qiagen, Valencia, Calif.). qRT-PCR was performed as described previously (42) by using the Bio-Rad CFX96 Real-Time PCR Detection System with iQ SYBR Green Supermix (Bio-Rad, Hercules, Calif.). RNA-seq library generation and data analysis were performed at The Ohio State University Comprehensive Cancer Center (OSUCCC) Nucleic Acid Shared Resource.
Cytokine profiles. […] AR-42 reduced IL-6 and LIF levels by 56% and 88%, respectively, in tumor-bearing mice (IL-6, 102±38 pg/ml; LIF, 3.8±1.6 pg/ml) compared to the vehicle-treated counterparts. In light of the ability of AR-42 to blunt cachexia-associated increases in IL-6, we examined the effect of AR-42 on intramuscular mRNA levels of IL-6 receptor alpha chain (IL-6Rα). […] AR-42 reduced this cachexia-induced increase by 85% (2.0±0.2-fold; n=10)(FIG. 5, lower).

C-26 tumor-bearing mice [5] = test: Delayed treatment in the C-26 model (body weight, tumor growth)
Procedure: as §3
In those experiments, treatment was initiated early in the progression of cachexia when overt signs of wasting were undetectable. To investigate whether later initiation of AR-42 treatment remains protective against cachexia, C-26 tumor-bearing mice were treated with AR-42 (50 mg/kg, p.o., every other day) starting at 6, 10 and 12 days after tumor cell injection.

Atrogin-1/MAFbx mRNA = test: qPCR of gastrocnemius muscle, C-26 model: Atrogin-1; details: C-26 tumor-bearing mice, 15 days after tumor cell injection, tumor-bearing/vehicle 29.4±3.5-fold, mean±S.D.
Procedure: as §4
AR-42 was able to restore expression of Atrogin-1 (2.7±0.7-fold) and MuRF1 (1.1±0.2-fold) mRNA to basal levels […].

[6] = test system: gastrocnemius muscles of C-26 tumor-bearing mice; test: Metabolomic profiling of gastrocnemius muscle, C-26 model; details: day 17, C-26 tumor-bearing mice
Excerpt: as §1
With cachexia, skeletal muscles undergo complex metabolic changes in response to tumor/host-derived inflammatory and neuroendocrine stressors (1). Accordingly, we conducted metabolic profiling analysis to investigate the effect of AR-42 on cachexia-induced shifts in metabolic phenotype in skeletal muscle. Tumor-free and C-26 tumor-bearing mice were treated with vehicle or AR-42 as aforementioned, and gastrocnemius muscles were collected at day 17 for metabolomic analysis.

[7] = 50 mg/kg p.o. every other day, vehicle 19%

CC(C)[C@H](C(=O)Nc1ccc(C(=O)NO)cc1)c1ccccc1 [AR-42, (S)—N-hydroxy-4-(3-methyl-2-phenylbutanamido)benzamide]
serum IL-6 level (IL-6): 102 ± 38 pg/mL
cumulative survival (weight loss below 20% of starting weight) (C-26 tumor-bearing mice [1]): 100%
forelimb muscle strength (handgrip dynamometry) relative to vehicle-treated control (C-26 tumor-bearing mice [2]): helped preserve forelimb muscle strength
serum LIF level [3]: 3.8 ± 1.6 pg/mL
IL-6Rα mRNA level compared to tumor-free mice [4]: 2.0±0.2 fold
loss of body weight (tumor excluded) by day 17, treatment starting at day 6 (C-26 tumor-bearing mice [5]; [7]): 6%
loss of body weight (tumor excluded) by day 17, treatment starting at day 10 (C-26 tumor-bearing mice [5]; [7]): 11%
loss of body weight (tumor excluded) by day 17, treatment starting at day 12 (C-26 tumor-bearing mice [5]; [7]): 12%
effect on tumor growth, delayed treatment experiment (C-26 tumor-bearing mice [5]; treatment from day 6, 10 or 12): without appreciable effects
Atrogin-1 mRNA level relative to tumor-free/vehicle control (Atrogin-1/MAFbx mRNA): 2.7±0.7 fold
cachectic phenotype of free amino acids and amino acid metabolites [6]: reversed
glycogen metabolic intermediates (short-chain malto-oligosaccharides, glucose 1-phosphate) [6]: significantly replenished
intramuscular levels of glucose and key glycolytic intermediates ([6]; lowered in cachectic muscle): reversed these metabolic changes
2-hydroxybutyrate and ophthalmate levels in muscle ([6]; to levels comparable to tumor-free mice): dramatically reduced
